This is an account of results in patent US20260297542A1, “HERBICIDE RESISTANT PLANTS” (SYNGENTA CROP PROTECTION AG, priority 2023, published 2026).

The test has as its target T1, AtPPO1 Q272T (Arabidopsis thaliana, UniProt P55826, Q272T).
T1 construct: expressed in transfected cells; host or cells: E. coli BL21(DE3) hemG (hemG replaced by CmR), pET24a plasmid
T1 sequence (P55826 35-537 Q272T): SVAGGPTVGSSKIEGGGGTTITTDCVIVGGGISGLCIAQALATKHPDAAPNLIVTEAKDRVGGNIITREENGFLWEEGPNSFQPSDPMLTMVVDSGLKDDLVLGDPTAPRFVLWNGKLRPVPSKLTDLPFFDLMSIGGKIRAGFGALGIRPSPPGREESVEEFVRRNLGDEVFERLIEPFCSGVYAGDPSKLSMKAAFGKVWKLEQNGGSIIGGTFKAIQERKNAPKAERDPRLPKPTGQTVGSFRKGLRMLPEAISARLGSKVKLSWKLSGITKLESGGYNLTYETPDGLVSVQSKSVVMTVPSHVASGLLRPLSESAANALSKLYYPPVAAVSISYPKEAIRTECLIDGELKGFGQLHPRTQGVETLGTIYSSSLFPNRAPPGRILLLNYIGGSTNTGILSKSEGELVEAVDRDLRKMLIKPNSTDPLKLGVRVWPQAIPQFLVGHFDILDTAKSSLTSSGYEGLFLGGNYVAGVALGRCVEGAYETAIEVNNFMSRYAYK
Description: E. coli hemG growth inhibition by herbicide, AtPPO1 variant. In kind it is cell-based. The following applies: read-out: percentage growth inhibition. In short, it runs like this: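 E. coli BL21(DE3) ΔhemG::CmR complemented by AtPPO1 variants (pET24a, T7, E. coli codon-optimised); TB + 0.1 mM IPTG, 1:100 inoculum; 6.25 ppm herbicide 0/E or 0.78 ppm herbicide B vs DMSO; 24 h, 37° C, 250 rpm; OD600 at 24 h → % growth inhibition.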

Turning to `C#CCN1C(=O)C(F)(F)Oc2cc(F)c(-n3c(=O)n(C)c(=S)n(C)c3=O)cc21` [Herbicide B, trifludimoxazin], the inhibition (in general, the drop in the measured response relative to a control, in per cent) at 0.78 ppm turned out to be 28%.

As to `CCOC(=O)[C@]1(C)CC(c2cc(-n3c(=O)n(C)c(=S)n(C)c3=O)c(F)cc2Cl)=NO1` [Herbicide D, ethyl (5S)-3-[2-chloro-5-(3,5-dimethyl-2,6-dioxo-4-thioxo-1,3,5-triazinan-1-yl)-4-fluoro-phenyl]-5-methyl-4H-isoxazole-5-carboxylate], the inhibition at 6.25 ppm is 23%.

On to `CC(C)N(C)S(=O)(=O)NC(=O)c1cc(-n2c(=O)cc(C(F)(F)F)n(C)c2=O)c(F)cc1Cl` [Herbicide E, saflufenacil], for which the inhibition at 6.25 ppm was found to be 64%.
